Values quoted from earlier work as cited in patent publication KR20220033790A, “장 정결용 조성물” (강윤식, priority 2020, dated 2022).

Tested on: blood glucose (혈당)
Conditions: scale 0-100, glucose = 100 at 2 h after intake; background statement

SMILES | Glycemic index (GI)
OC[C@@H](O)[C@@H](O)[C@H](O)[C@@H](O)CO.OC[C@@H](O)[C@@H](O)[C@H](O)[C@@H](O)CO [소르비톨] | 4
OC[C@@H](O)[C@H](O)[C@@H](O)CO [자일리톨] | 14
